Source: ChEMBL document CHEMBL6178019, “Discovery of CYP1A1 Inhibitors for Host-Directed Therapy against Sepsis” (J Med Chem, 2025)
Active and inactive are the calls of the source. No cut-off for these calls is given here.

Key:
Mus musculus = test: Effect on CYP1A1 protein expression in C57BL/6 mouse kidney infected with methicillin-resistant Staphylococcus aureus at 25 mg/kg, ip administered for 12 hrs by Western blot analysis; type: functional, organism-based
RAW264.7 = test: Induction of phagocytosis in mouse RAW264.7 cells assessed as upregulation of CD68 protein level by flow cytometric analysis; type: functional, cell-based
Pseudomonas aeruginosa = test: Antibacterial activity against Pseudomonas aeruginosa infected in C57BL/6 mouse assessed as increase in survival at 25 mg/kg, ip pretreated for 12 hrs followed by bacterial infection and measured after 60 hrs by Kaplan Meier survival analysis; type: functional, organism-based; conditions: time 72.0 hrs
CYP1A1 [1] = target: T1, CYP1A1 (Mus musculus, UniProt P00184); test: Inhibition of CYP1A1 in mouse RAW264.7 cells assessed as relative activity by measuring fold change at 5 uM incubated for 12 hrs by EROD assay relative to control; type: cell-based; conditions: read-out: FC
T1 sequence (P00184 whole entry): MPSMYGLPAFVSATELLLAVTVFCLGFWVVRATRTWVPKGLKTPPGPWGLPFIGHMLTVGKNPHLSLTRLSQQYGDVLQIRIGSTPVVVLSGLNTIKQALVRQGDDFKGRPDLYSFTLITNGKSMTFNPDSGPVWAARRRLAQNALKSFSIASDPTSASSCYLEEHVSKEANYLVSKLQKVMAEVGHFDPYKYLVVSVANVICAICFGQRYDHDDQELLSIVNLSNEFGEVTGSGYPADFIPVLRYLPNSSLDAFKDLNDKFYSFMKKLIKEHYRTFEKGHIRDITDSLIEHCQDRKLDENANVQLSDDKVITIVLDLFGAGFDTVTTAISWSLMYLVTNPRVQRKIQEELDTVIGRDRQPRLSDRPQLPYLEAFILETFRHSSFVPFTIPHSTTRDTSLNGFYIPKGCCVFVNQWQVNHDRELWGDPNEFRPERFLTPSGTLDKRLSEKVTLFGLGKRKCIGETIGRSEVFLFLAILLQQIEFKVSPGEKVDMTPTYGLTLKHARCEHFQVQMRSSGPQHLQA

CYP1A1 [2] = target: T1, CYP1A1; test: Inhibition of CYP1A1 in mouse RAW264.7 cells assessed as relative activity by measuring fold change at 500 nM incubated for 12 hrs by EROD assay relative to control; type: cell-based; conditions: read-out: FC
[3] = Toxicity in male C57BL/6 mouse assessed as effect on aspartate aminotransferase (AST) level in serum up to 100 mg/kg, ip measured after 12 hrs; type: organism-based; conditions: in vivo
Staphylococcus aureus [4] = test: Antibacterial activity against methicillin-resistant Staphylococcus aureus assessed as inhibition of bacterial growth at 0.02 to 2.5 mg/ml; type: functional, organism-based; conditions: dose 0.02-2.5 mg/ml
Acinetobacter baumannii [5] = test: Antibacterial activity against Acinetobacter baumannii infected in C57BL/6 mouse assessed as increase in survival at 25 mg/kg, ip preadministered for 12 hrs followed by bacterial infection and measured after 60 hrs by Kaplan Meier survival analysis; type: functional, organism-based; conditions: time 72.0 hrs
Acinetobacter baumannii [6] = test: Antibacterial activity against Acinetobacter baumannii infected in C57BL/6 mouse model assessed as reduction in bacterial load in peritoneal lavage fluid at 25 mg/kg, ip pretreated for 12 hrs followed by bacterial infection and measured after 24 hrs relative to control; type: functional; design: scale not given: the % may be the effect or the level left; conditions: time 36 hrs
Staphylococcus aureus [7] = test: Antibacterial activity against methicillin-resistant Staphylococcus aureus infected in C57BL/6 mouse model assessed as reversal of creatinine level in serum at 25 mg/kg, ip administered for 12 hrs by absorbance based microplate reader; type: functional, organism-based
CYP1A1 [8] = target: T2, CYP1A1 (Homo sapiens, UniProt P04798); test: Inhibition of CYP1A1 in human Caco-2 cells at 500 nM incubated for 12 hrs by EROD assay relative to control; type: cell-based
T2 sequence (P04798 whole entry): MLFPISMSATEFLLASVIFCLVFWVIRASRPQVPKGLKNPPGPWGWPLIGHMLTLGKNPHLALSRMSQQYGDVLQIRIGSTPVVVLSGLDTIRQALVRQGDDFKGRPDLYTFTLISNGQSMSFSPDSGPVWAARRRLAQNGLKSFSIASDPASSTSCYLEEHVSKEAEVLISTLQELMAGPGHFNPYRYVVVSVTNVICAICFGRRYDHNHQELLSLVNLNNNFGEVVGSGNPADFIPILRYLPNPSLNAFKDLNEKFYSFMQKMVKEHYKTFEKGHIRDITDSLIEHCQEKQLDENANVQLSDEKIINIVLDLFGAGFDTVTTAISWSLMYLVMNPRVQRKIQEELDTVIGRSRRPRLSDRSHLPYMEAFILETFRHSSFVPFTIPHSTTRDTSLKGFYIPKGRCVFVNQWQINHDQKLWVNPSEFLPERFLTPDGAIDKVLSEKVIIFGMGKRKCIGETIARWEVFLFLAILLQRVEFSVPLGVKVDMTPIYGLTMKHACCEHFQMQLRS

Staphylococcus aureus [9] = test: Antibacterial activity against methicillin-resistant Staphylococcus aureus infected in C57BL/6 mouse model assessed as reversal of alanine transaminase level in serum at 25 mg/kg, ip administered for 12 hrs by absorbance based microplate reader; type: functional, organism-based
Staphylococcus aureus [10] = test: Antibacterial activity against methicillin-resistant Staphylococcus aureus infected in C57BL/6 mouse model assessed as reduction in bacterial load in peritoneal lavage fluid at 25 mg/kg, ip pretreated for 12 hrs followed by bacterial infection and measured after 24 hrs relative to control; type: functional; design: scale not given: the % may be the effect or the level left; conditions: time 36 hrs
CYP1A1 [11] = target: T1, CYP1A1; test: Inhibition of CYP1A1 in mouse RAW264.7 cells at 500 nM incubated for 12 hrs by EROD assay relative to control; type: cell-based
THP-1 = test: Induction of phagocytosis in human THP-1-derived macrophages infected with hexidine iodide labelled methicillin-R Staphylococcus aureus at 5 uM preincubated for 12 hrs followed by bacterial infection and measured after 1 hrs by fluorescence based confocal microscopic analysis; type: functional, cell-based; conditions: time 13.0 hrs
[12] = Toxicity in male C57BL/6 mouse assessed as effect on blood urea nitrogen level in serum up to 100 mg/kg, ip measured after 12 hrs; type: organism-based; conditions: in vivo
CYP1A1 [13] = target: T2, CYP1A1; test: Inhibition of CYP1A1 in human Caco-2 cells assessed as relative activity by measuring fold change at 500 nM incubated for 12 hrs by EROD assay relative to control; type: cell-based; conditions: read-out: FC
[14] = Toxicity in male C57BL/6 mouse assessed as change in body weight at 1 to 100 mg/kg, ip measured after 7 days; type: organism-based; conditions: in vivo, 168 h, dose 1-100 mg/kg, time 7 day

SMILES	Activity (Mus musculus)	Activity (RAW264.7)	Activity (Pseudomonas aeruginosa)	fold induction at 12 h, 5 µM (CYP1A1 [1])	fold induction at 12 h, 0.5 µM (CYP1A1 [2])	Activity [3]	Activity (Staphylococcus aureus [4])	Activity (Acinetobacter baumannii [5])	Activity (Acinetobacter baumannii [6])	Activity (Staphylococcus aureus [7])	inhibition at 12 h, 0.5 µM (CYP1A1 [8])	Activity (Staphylococcus aureus [9])	Activity (Staphylococcus aureus [10])	inhibition at 12 h, 0.5 µM (CYP1A1 [11])	Activity (THP-1)	Activity [12]	fold induction at 12 h, 0.5 µM (CYP1A1 [13])	Activity [14]
C#Cc1ccccc1/C=C/C(=O)c1ccc2c(c1)n(C)c(=O)n2C	inactive	Active	Active	0.03	0.07	Non-toxic	Active	Active	>70%	Active	< 10%	Active	>70%	< 10%	Active	Non-toxic	0.06	Non-toxic
Cn1cc(/C=C/C(=O)c2ccc3c(c2)n(C)c(=O)n3C)c2ccccc21	inactive	Active	Active	0.25	0.72	Non-toxic	Active	Active	>70%	Active	–	Active	>70%	–	Active	Non-toxic	0.25	Non-toxic
